# pIC50: −log10 of the molar value.
# Test system: OCI-LY10 cells
# Assay: Cell proliferation assay (MTS) in OCI-LY10 cells
# Format: cell-based
# Conditions: Homo sapiens, OCI-Ly10, 72 h, read-out: OCI-LY10 IC50 (nM)
# From the text: MTS testing kit was purchased from Promega (Madison, Wis., USA). The RPMI-1640, Fetal bovine serum and Penicillin-Streptomycin were purchased from BI (Biological Industries, Beit Haemek, Israel). Dimethyl sulfoxide (DMSO) was purchased from Sigma (St. Louis., Mo., USA). […] To investigate whether a compound is able to inhibit the activity of BTK in cells, a mechanism-based assay using OCI-LY10 cells was developed. In this assay, inhibition of BTK was detected by the inhibition of OCI-LY10 cells proliferation. Cells were plated into 96-well plates at a density of 10000 cells/well. Plates were incubated at 37° C., with 5% CO2 for 4 h. […] Plates were incubated at 37° C., with 5% CO2 for 72 h. 20 μl MTS was added into each well and the plates were incubated at 37° C., with 5% CO2 for exactly 2 h. The absorbance was measured by a microplate reader at 490 nm. IC50 was calculated using GraphPad Prism 5.0 software. Select compounds prepared as described above were assayed according to the biological procedures described herein.
row,SMILES,IC50 [nM]
1,"COc1ccc(F)cc1C(=O)NCc1ccc(-c2nc(C3CCCC3)n3ncnc(N)c23)cc1 [Example 12, N-(4-(4-amino-7-cyclopentylimidazo [5,1-f][1,2,4]triazin-5-yl)benzyl)-5-fluoro-2-methoxybenzamide]",9

# Same assay, conditions: Homo sapiens; inhibition of OCI-LY10 cells proliferation, 72 h incubation, MTS, absorbance at 490 nm; read-out: OCI-LY10 IC50
row,SMILES,pIC50
1,"COc1ccc(F)cc1C(=O)NCc1ccc(-c2nc(C3CCCC3)n3ccnc(N)c23)cc1 [Example 13, N-(4-(8-amino-3-cyclopentylimidazo [l,5-a]pyrazin-1-yl)benzyl)-5-fluoro-2-methoxybenzamide]",8.70
2,"COc1ccc(F)cc1C(=O)NCc1ccc(-n2nc(C3CCCC3)c3ccnc(N)c32)cc1 [Example 14, N-(4-(7-amino-3-cyclopentyl-1H-pyrazolo [3,4-c]pyridin-1-yl)benzyl)-5-fluoro-2-methoxybenzamide]",7.07
3,"COc1ccc(F)cc1C(=O)NCc1ccc(-n2nc(C3CCCC3)c3c(=O)[nH]nc(N)c32)cc1 [Example 16, N-(4-(7-amino-3-cyclopentyl-4-oxo-4,5-dihydro-1H-pyrazolo[3,4-d]pyridazin-1-yl)benzyl)-5-fluoro-2-methoxybenzamide]",9.00
4,"COc1ccc(F)cc1C(=O)NCc1ccc(-n2cc(C3CCCC3)c3ncnc(N)c32)cc1 [Example 18, N-(4-(4-amino-7-cyclopentyl-5H-pyrrolo [3,2-d]pyrimidin-5-yl)benzyl)-5-flu oro-2-methoxybenzamide]",9.00
5,"COc1ccc(F)cc1C(=O)NCc1ccc(-n2c(=O)n(C3CCCC3)c3ccnc(N)c32)cc1 [Example 22, N-(4-(4-amino-1-cyclopentyl-2-oxo-1,2-dihydro-3H-imidazo[4,5-c]pyridin-3-yl)benzyl)-5-fluoro-2-methoxybenzamide]",7.36
6,"COc1ccc(F)cc1C(=O)NCc1ccc(-n2cc(C3CCCCC3)c3c(=O)[nH]nc(N)c32)cc1 [Example 27, N-(4-(7-amino-3-cyclohexyl-4-oxo-4,5-dihydro-1H-pyrrolo[2,3-d]pyridazin-1-yl)benzyl)-5-fluoro-2-methoxybenzamide]",9.00
7,"COc1ccc(F)cc1C(=O)NCc1ccc(-c2cn(C3CCCC3)c3c(=O)[nH]nc(N)c23)cc1F [Example 30, N-(4-(4-amino-1-cyclopentyl-7-oxo-6,7-dihydro-1H-pyrrolo[2,3-d]pyridazin-3-yl)-2-fluorobenzyl)-5-fluoro-2-methoxybenzamide]",9.00
8,"COc1ccc(F)cc1C(=O)NCc1ccc(-c2cn(C3CCCC3)c3c(=O)[nH]nc(N)c23)c(F)c1 [Example 31, N-(4-(4-amino-1-cyclopentyl-7-oxo-6,7-dihydro-1H-pyrrolo[2,3-d]pyridazin-3-yl)-3-fluorobenzyl)-5-fluoro-2-methoxybenzamide]",9.00
9,"COc1ccc(F)cc1C(=O)NCc1ccc(-c2cn(C3CC3)c3c(=O)[nH]nc(N)c23)cc1 [Example 34, N-(4-(4-amino-1-cyclopropyl-7-oxo-6,7-dihydro-1H-pyrrolo[2,3-d]pyridazin-3-yl)benzyl)-5-fluoro-2-methoxybenzamide]",8.40
10,"COc1ccc(F)cc1C(=O)NCc1ccc(-c2cn(C3CCCCC3)c3c(=O)[nH]nc(N)c23)cc1 [Example 35, N-(4-(4-amino-1-cyclohexyl-7-oxo-6,7-dihydro-1H-pyrrolo[2,3-d]pyridazin-3-yl)benzyl)-5-fluoro-2-methoxybenzamide]",9.00
11,"COc1ccc(F)cc1C(=O)NCc1ccc(-c2cn(C3CCC3)c3c(=O)[nH]nc(N)c23)cc1 [Example 36, N-(4-(4-amino-1-cyclobutyl-7-oxo-6,7-dihydro-1H-pyrrolo[2,3-d]pyridazin-3-yl)benzyl)-5-fluoro-2-methoxybenzamide]",9.00
12,"COc1ccc(F)cc1C(=O)NCc1ccc(-c2cn(C3CCOCC3)c3c(=O)[nH]nc(N)c23)cc1 [Example 37, N-(4-(4-amino-7-oxo-1-(tetrahydro-2H-pyran-4-yl)-6,7-dihydro-1H-pyrrolo [2,3-d]pyridazin-3-yl)benzyl)-5-fluoro-2-methoxybenzamide]",8.05
13,"COc1ccc(F)cc1C(=O)NCc1ccc(-c2cn(C3CCCC3(C)O)c3c(=O)[nH]nc(N)c23)cc1 (centres unmarked) [Example 38, N-(4-(4-amino-1-(2-hydroxy-2-methylcyclopentyl)-7-oxo-6,7-dihydro-1H-pyrrolo[2,3-d]pyridazin-3-yl)benzyl)-5-fluoro-2-methoxybenzamide]",7.46
14,"COc1ccc(F)cc1C(=O)NCc1ccc(-c2nn([C@@H](C)C(F)(F)F)c3c(=O)[nH]nc(N)c23)cc1 [Example 40a, (S)-N-(4-(4-amino-7-oxo-1-(1,1,1-trifluoropropan-2-yl)-6,7-dihydro-1H-pyrazolo[3,4-d]pyridazin-3-yl)benzyl)-5-fluoro-2-methoxybenzamide]",8.15
15,"COc1ccc(F)cc1C(=O)NCc1ccc(-c2nn([C@H](C)C(F)(F)F)c3c(=O)[nH]nc(N)c23)cc1 [Example 40b, (R)-N-(4-(4-amino-7-oxo-1-(1,1,1-trifluoropropan-2-yl)-6,7-dihydro-1H-pyrazolo[3,4-d]pyridazin-3-yl)benzyl)-5-fluoro-2-methoxybenzamide]",7.08
16,"COc1ccc(F)cc1C(=O)NCc1ccc(-n2nc(C(C)C(F)(F)F)c3c(=O)[nH]nc(N)c32)cc1 (centres unmarked) [Example 41, N-(4-(7-amino-4-oxo-3-(1,1,1-trifluoropropan-2-yl)-4,5-dihydro-1H-pyrazolo[3,4-d]pyridazin-1-yl)benzyl)-5-fluoro-2-methoxybenzamide]",7.74
17,"COc1ccc(F)cc1C(=O)NCc1ccc(-c2cn(C3CCCC3)c3c(=O)[nH]nc(N)c23)cn1 [Example 45, N-((5-(4-amino-1-cyclopentyl-7-oxo-6,7-dihydro-1H-pyrrolo[2,3-d]pyridazin-3-yl)pyridin-2-yl)methyl)-5-fluoro-2-methoxybenzamide]",7.49
18,"COc1ccc(F)cc1C(=O)NCc1ccc(-c2cn([C@@H]3CCN(C(=O)C4CC4)C3)c3c(=O)[nH]nc(N)c23)cc1 [Example 48, (R)-N-(4-(4-amino-1-(1-(cyclopropanecarbonyl)pyrrolidin-3-yl)-7-oxo-6,7-dihydro-1H-pyrrolo[2,3-d]pyridazin-3-yl)benzyl)-5-fluoro-2-methoxybenzamide]",7.32
19,"COC(=O)N1CC[C@@H](n2cc(-c3ccc(CNC(=O)c4cc(F)ccc4OC)cc3)c3c(N)n[nH]c(=O)c32)C1 [Example 49, methyl (R)-3-(4-amino-3-(4-((5-fluoro-2-methoxybenzamido)methyl)phenyl)-7-oxo-6,7-dihydro-1H-pyrrolo[2,3-d]pyridazin-1-yl)pyrrolidine-1-carboxylate]",8.05
20,"COc1ccc(F)cc1C(=O)NCc1ccc(-c2cn([C@@H]3CCN(S(C)(=O)=O)C3)c3c(=O)[nH]nc(N)c23)cc1 [Example 50, (R)-N-(4-(4-amino-1-(1-(methylsulfonyl)pyrrolidin-3-yl)-7-oxo-6,7-dihydro-1H-pyrrolo[2,3-d]pyridazin-3-yl)benzyl)-5-fluoro-2-methoxybenzamide]",7.72
21,"COc1ccc(F)cc1C(=O)NCc1ccc(-c2cn(C(C)C(F)(F)F)c3c(=O)[nH]nc(N)c23)cc1F (centres unmarked) [Example 53, N-(4-(4-amino-7-oxo-1-(1,1,1-trifluoropropan-2-yl)-6,7-dihydro-1H-pyrrolo[2,3-d]pyridazin-3-yl)-2-fluorobenzyl)-5-fluoro-2-methoxybenzamide]",8.52
22,"COc1ccc(F)cc1C(=O)NCc1ccc(-c2cn(C3CC(F)(F)C3)c3c(=O)[nH]nc(N)c23)cc1 [Example 54, N-(4-(4-amino-1-(3,3-difluorocyclobutyl)-7-oxo-6,7-dihydro-1H-pyrrolo[2,3-d]pyridazin-3-yl)benzyl)-5-fluoro-2-methoxybenzamide]",9.00
23,COc1ccc(F)cc1C(=O)NCc1ccc(-c2cn(C3CC(F)(F)C3)c3c(=O)[nH]nc(N)c23)cn1 [Example 55],7.55
24,"COc1ccc(F)cc1C(=O)NCc1ccc(-c2cn(C3CC(F)(F)C3)c3c(=O)[nH]nc(N)c23)cc1F [Example 56, N-(4-(4-amino-1-(3,3-difluorocyclobutyl)-7-oxo-6,7-dihydro-1H-pyrrolo[2,3-d]pyridazin-3-yl)-2-fluorobenzyl)-5-fluoro-2-methoxybenzamide]",8.52
25,"COc1ccc(F)cc1C(=O)NCc1ccc(-c2cn([C@@H]3C[C@@H]3F)c3c(=O)[nH]nc(N)c23)cc1 [Example 57, N-(4-(4-amino-1-((1R,2S)-2-fluorocyclopropyl)-7-oxo-6,7-dihydro-1H-pyrrolo[2,3-d]pyridazin-3-yl)benzyl)-5-fluoro-2-methoxybenzamide]",7.62
26,"COc1ccc(F)cc1C(=O)NCc1ccc(-c2cn([C@@H]3C[C@@H]3F)c3c(=O)[nH]nc(N)c23)cc1F [Example 59, N-(4-(4-amino-1-((1R,2S)-2-fluorocyclopropyl)-7-oxo-6,7-dihydro-1H-pyrrolo[2,3-d]pyridazin-3-yl)-2-fluorobenzyl)-5-fluoro-2-methoxybenzamide]",7.21
27,"COc1ccc(F)cc1C(=O)NCc1ccc(-n2c(=O)n(C3CCCC3)c3c(=O)[nH]nc(N)c32)cc1 [Example 60, N-(4-(7-amino-3-cyclopentyl-2,4-dioxo-2,3,4,5-tetrahydro-1H-imidazo[4,5-d]pyridazin-1-yl)benzyl)-5-fluoro-2-methoxybenzamide]",7.52
28,"COc1ncc(F)cc1C(=O)NCc1ccc(-c2nn(C3CCCC3)c3c(=O)[nH]nc(N)c23)cc1 [Example 61, N-(4-(4-amino-1-cyclopentyl-7-oxo-6,7-dihydro-1H-pyrazolo[3,4-d]pyridazin-3-yl)benzyl)-5-fluoro-2-methoxynicotinamide]",7.82

# From patent publication US20230145305A1, “COMPOUNDS USEFUL AS KINASE INHIBITORS” (Fochon Biosciences, Ltd., priority 2020, published 2023)
